# Results as given in PubChem BioAssay AID2060329 (Molecular Pharmacology Branch, DTP, NCI, 2025).
# pIC50: −log10 of the molar value. “And” between values parts separate entries of the source, which are not always exact repeats. Identical values can stand only once.
# Tested on: MCF7 multi-cell spheroids with HUVEC/MSC, viability
# Test: Anticancer human tumor MCF7 cell line growth inhibition [IpAb];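 note: spheroids exposed to agents for seven days before readout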
# Details: for viability, T/C: stronger effect = lower value
# In short: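 Combinations with ipatasertib or abemaciclib were tested on tumour spheroids holding HUVEC (25%) and MSC (15%) alongside 60% malignant cells. Top concentration was at or near clinical Cmax (10 microM if undefined), descending in half-log steps.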
# [1] = curve of first compound, second compound 0.1 µM
# [2] = curve of first compound, second compound 0.316 µM
# [3] = curve of first compound, second compound 1 µM
# [4] = curve of first compound, second compound 3.16 µM
# [5] = curve of first compound, second compound 10 µM
# [6] = second compound 0.1 µM, first compound 0.0316 µM
# [7] = second compound 0.1 µM, first compound 0.1 µM
# [8] = second compound 0.1 µM, first compound 0.316 µM
# [9] = second compound 0.1 µM, first compound 1 µM
# [10] = second compound 0.1 µM, first compound 3.16 µM
# [11] = second compound 0.1 µM, first compound 10 µM
# [12] = second compound 0.316 µM, first compound 0.0316 µM
# [13] = second compound 0.316 µM, first compound 0.1 µM
# [14] = second compound 0.316 µM, first compound 0.316 µM
# [15] = second compound 0.316 µM, first compound 1 µM
# [16] = second compound 0.316 µM, first compound 3.16 µM
# [17] = second compound 0.316 µM, first compound 10 µM
# [18] = second compound 1 µM, first compound 0.0316 µM
# [19] = second compound 1 µM, first compound 0.1 µM
# [20] = second compound 1 µM, first compound 0.316 µM
# [21] = second compound 1 µM, first compound 1 µM
# [22] = second compound 1 µM, first compound 3.16 µM
# [23] = second compound 1 µM, first compound 10 µM
# [24] = second compound 3.16 µM, first compound 0.0316 µM
# [25] = second compound 3.16 µM, first compound 0.1 µM
# [26] = second compound 3.16 µM, first compound 0.316 µM
# [27] = second compound 3.16 µM, first compound 1 µM
# [28] = second compound 3.16 µM, first compound 3.16 µM
# [29] = second compound 3.16 µM, first compound 10 µM
# [30] = second compound 10 µM, first compound 0.0316 µM
# [31] = second compound 10 µM, first compound 0.1 µM
# [32] = second compound 10 µM, first compound 0.316 µM
# [33] = second compound 10 µM, first compound 1 µM
# [34] = second compound 10 µM, first compound 3.16 µM
# [35] = second compound 10 µM, first compound 10 µM
smiles,measurement,setting,value
C=CC(=O)N1CCN(c2nc(=O)n(-c3c(C)ccnc3C(C)C)c3nc(-c4c(O)cccc4F)c(F)cc23)C(C)C1 (configuration not stated) + CC(C)NCC(C(=O)N1CCN(c2ncnc3c2C(C)CC3O)CC1)c1ccc(Cl)cc1,pIC50,[1],5.08
same,pIC50,[2],5.16
same,pIC50,[3],5.57
same,pIC50,[4],5.97
same,pIC50,[5],> 7.50
same,"viability, T/C",[6],82.4%
same,"viability, T/C",[7],99.8%
same,"viability, T/C",[8],100%
same,"viability, T/C",[9],90.8%
same,"viability, T/C",[10],78.3%
same,"viability, T/C",[11],44.5%
same,"viability, T/C",[12],79.5%
same,"viability, T/C",[13],87.3%
same,"viability, T/C",[14],77.1%
same,"viability, T/C",[15],73.3%
same,"viability, T/C",[16],68.4%
same,"viability, T/C",[17],41.6%
same,"viability, T/C",[18],74.5%
same,"viability, T/C",[19],73.3%
same,"viability, T/C",[20],65.4%
same,"viability, T/C",[21],65.8%
same,"viability, T/C",[22],46.6%
same,"viability, T/C",[23],32.8%
same,"viability, T/C",[24],58.6%
same,"viability, T/C",[25],53.4%
same,"viability, T/C",[26],56.6%
same,"viability, T/C",[27],50.2%
same,"viability, T/C",[28],38.7%
same,"viability, T/C",[29],22.6%
same,"viability, T/C",[30],47.7%
same,"viability, T/C",[31],41.3%
same,"viability, T/C",[32],44%
same,"viability, T/C",[33],36.3%
same,"viability, T/C",[34],40.9%
same,"viability, T/C",[35],22.6%
CC(C)(C)c1cnc(CSc2cnc(NC(=O)C3CCNCC3)s2)o1 + CCN1CCN(Cc2ccc(Nc3ncc(F)c(-c4cc(F)c5nc(C)n(C(C)C)c5c4)n3)nc2)CC1,pIC50,"curve of first compound, second compound 0.01 µM",7.13
same,pIC50,"curve of first compound, second compound 0.0316 µM",7.17
same,pIC50,[1],7.19
same,pIC50,[2],7.29
same,pIC50,[3],7.76
same,"viability, T/C","second compound 0.01 µM, first compound 0.00949 µM",112%
same,"viability, T/C","second compound 0.01 µM, first compound 0.03 µM",93%
same,"viability, T/C","second compound 0.01 µM, first compound 0.0949 µM",38.9%
same,"viability, T/C","second compound 0.01 µM, first compound 0.3 µM",23.7%
same,"viability, T/C","second compound 0.01 µM, first compound 0.949 µM",27.4%
same,"viability, T/C","second compound 0.01 µM, first compound 3 µM",29.8%
same,"viability, T/C","second compound 0.0316 µM, first compound 0.00949 µM",102%
same,"viability, T/C","second compound 0.0316 µM, first compound 0.03 µM",97.8%
same,"viability, T/C","second compound 0.0316 µM, first compound 0.0949 µM",29.4%
same,"viability, T/C","second compound 0.0316 µM, first compound 0.3 µM",19.5%
same,"viability, T/C","second compound 0.0316 µM, first compound 0.949 µM",26.8%
same,"viability, T/C","second compound 0.0316 µM, first compound 3 µM",27.6%
same,"viability, T/C","second compound 0.1 µM, first compound 0.00949 µM",108%
same,"viability, T/C","second compound 0.1 µM, first compound 0.03 µM",99.7%
same,"viability, T/C","second compound 0.1 µM, first compound 0.0949 µM",25%
same,"viability, T/C","second compound 0.1 µM, first compound 0.3 µM",21.7%
same,"viability, T/C","second compound 0.1 µM, first compound 0.949 µM",26.9%
same,"viability, T/C","second compound 0.1 µM, first compound 3 µM",27.2%
same,"viability, T/C","second compound 0.316 µM, first compound 0.00949 µM",94.5%
same,"viability, T/C","second compound 0.316 µM, first compound 0.03 µM",72.3%
same,"viability, T/C","second compound 0.316 µM, first compound 0.0949 µM",21.3%
same,"viability, T/C","second compound 0.316 µM, first compound 0.3 µM",22.3%
same,"viability, T/C","second compound 0.316 µM, first compound 0.949 µM",27.1%
same,"viability, T/C","second compound 0.316 µM, first compound 3 µM",30.4%
same,"viability, T/C","second compound 1 µM, first compound 0.00949 µM",63%
same,"viability, T/C","second compound 1 µM, first compound 0.03 µM",37.8%
same,"viability, T/C","second compound 1 µM, first compound 0.0949 µM",19.6%
same,"viability, T/C","second compound 1 µM, first compound 0.3 µM",22.8%
same,"viability, T/C","second compound 1 µM, first compound 0.949 µM",27.5%
same,"viability, T/C","second compound 1 µM, first compound 3 µM",32%
C=CCn1c(=O)c2cnc(Nc3ccc(N4CCN(C)CC4)cc3)nc2n1-c1cccc(C(C)(C)O)n1 + CC(C)NCC(C(=O)N1CCN(c2ncnc3c2C(C)CC3O)CC1)c1ccc(Cl)cc1,pIC50,[1],6.27
same,pIC50,[2],6.44
same,pIC50,[3],6.77
same,pIC50,[4],> 7.50
same,pIC50,[5],> 7.50
same,"viability, T/C",[6],89.1%
same,"viability, T/C",[7],99.2%
same,"viability, T/C",[8],67.4%
same,"viability, T/C",[9],31.8%
same,"viability, T/C",[10],26.3%
same,"viability, T/C",[11],33%
same,"viability, T/C",[12],77.8%
same,"viability, T/C",[13],80.9%
same,"viability, T/C",[14],49.4%
same,"viability, T/C",[15],37.4%
same,"viability, T/C",[16],23.2%
same,"viability, T/C",[17],27%
same,"viability, T/C",[18],64.2%
same,"viability, T/C",[19],61.6%
same,"viability, T/C",[20],36.5%
same,"viability, T/C",[21],20.9%
same,"viability, T/C",[22],17.7%
same,"viability, T/C",[23],16.4%
same,"viability, T/C",[24],49.6%
same,"viability, T/C",[25],38.2%
same,"viability, T/C",[26],25.5%
same,"viability, T/C",[27],14.6%
same,"viability, T/C",[28],11.2%
same,"viability, T/C",[29],7.69%
same,"viability, T/C",[30],42.4%
same,"viability, T/C",[31],33.2%
same,"viability, T/C",[32],19.4%
same,"viability, T/C",[33],10.6%
same,"viability, T/C",[34],8.49%
same,"viability, T/C",[35],4.08%
Cc1nc(NC(=O)N2CCCC2C(N)=O)sc1-c1ccnc(C(C)(C)C(F)(F)F)c1 (configuration not stated),"viability, T/C",compound 0.0316 µM,74.8% and 93.7%
same,"viability, T/C",compound 0.1 µM,64.7% and 93.4%
same,"viability, T/C",compound 0.316 µM,65.9% and 78.8%
same,"viability, T/C",compound 1 µM,47.6% and 70.3%
same,"viability, T/C",compound 3.16 µM,48.1% and 63.4%
same,"viability, T/C",compound 10 µM,36.2% and 43%
same,pIC50,curve of compound,5.81 and 5.18
Cc1nc(NC(=O)N2CCCC2C(N)=O)sc1-c1ccnc(C(C)(C)C(F)(F)F)c1 (configuration not stated) + CC(C)NCC(C(=O)N1CCN(c2ncnc3c2C(C)CC3O)CC1)c1ccc(Cl)cc1,pIC50,[1],5.74
same,pIC50,[2],6.40
same,pIC50,[3],> 7.50
same,pIC50,[4],> 7.50
same,pIC50,[5],> 7.50
same,"viability, T/C",[6],68.9%
same,"viability, T/C",[7],66.4%
same,"viability, T/C",[8],56.9%
same,"viability, T/C",[9],52.7%
same,"viability, T/C",[10],49.6%
same,"viability, T/C",[11],20.4%
same,"viability, T/C",[12],62.4%
same,"viability, T/C",[13],57%
same,"viability, T/C",[14],50.3%
same,"viability, T/C",[15],42.8%
same,"viability, T/C",[16],37.8%
same,"viability, T/C",[17],19.9%
same,"viability, T/C",[18],45.8%
same,"viability, T/C",[19],52.7%
same,"viability, T/C",[20],36.2%
same,"viability, T/C",[21],34.7%
same,"viability, T/C",[22],34.4%
same,"viability, T/C",[23],9.85%
same,"viability, T/C",[24],36.9%
same,"viability, T/C",[25],38.1%
same,"viability, T/C",[26],35.4%
same,"viability, T/C",[27],29.5%
same,"viability, T/C",[28],27.1%
same,"viability, T/C",[29],7.55%
same,"viability, T/C",[30],28.6%
same,"viability, T/C",[31],25.9%
same,"viability, T/C",[32],26.1%
same,"viability, T/C",[33],21.5%
same,"viability, T/C",[34],28.4%
same,"viability, T/C",[35],1.68%
